The values that follow come from patent US4202902A, “Lipogenesis control by cyclopropane-carboxylic acids, esters and amides” (Shell Oil Company, priority 1979, dated 1980).

The test system of one test is swine adipose tissue lipid synthesis. In words: In vivo inhibition of swine adipose tissue lipid synthesis (pigs dosed in feed, biopsy slices incubated with radioactive glucose). The following applies: approx. 25 mg/kg per day for seven days in ration, biopsy 1 week after withdrawal of drug, compared to control animals. The method, then:
Compounds 1 and 6 were tested to determine the in vivo inhibition of swine adipose tissue lipid synthesis, as follows: pigs weighing about 20 kilograms were administered a fixed drug dose of approximately 25 milligrams of drug per kilogram of animal body weight per day for seven consecutive days. The drug was formulated to contain 10%w active ingredient and was prepared as coarse granules using 4%w plasdene as the granulating agent and lactose as the carrier. […] The daily drug or placebo dose was added to 1.2 kilograms of swine ration; about one-third of the total was fed at 0800, 1200, and 1600 hours. Biopsy samples were obtained from the dorsal subcutaneous adipose tissue (ca 1 gram) in the neck region before drug administration, after 1 week of drug administration, and 1 week after withdrawal of drug. Adipose tissue slices were prepared from the biopsy sample, and in vitro lipogenesis was determined with radioactive glucose as substrate. The incubation was similar to that previously described except that there was no DMSO or test compound in the flasks.
On to `CCCCCCCC[C@@H]1C[C@H]1C(=O)O` (relative stereo) [Compound 6, 2-octylcyclopropanecarboxylic acid (trans)], for which the “lipogenic rate after 2 weeks” value was “significantly reduced the lipogenic rate”.
In the case of `CCCCCCCC[C@@H]1C[C@H]1C(=O)OCC` (relative stereo) [Compound 1, Ethyl 2-octylcyclopropanecarboxylate (trans)], the “lipogenic rate after 2 weeks” value was “significantly reduced the lipogenic rate”.

The same test, now with this note: approx. 25 mg/kg per day for seven days in ration, biopsy after 1 week of drug administration, compared to control animals.
As for `CCCCCCCC[C@@H]1C[C@H]1C(=O)O` (relative stereo) [Compound 6, 2-octylcyclopropanecarboxylic acid (trans)], the “effect on lipogenesis after 1 week” value was “neither of the test compounds had significantly affected lipogenesis”.
In the case of `CCCCCCCC[C@@H]1C[C@H]1C(=O)OCC` (relative stereo) [Compound 1, Ethyl 2-octylcyclopropanecarboxylate (trans)], the “effect on lipogenesis after 1 week” value is “neither of the test compounds had significantly affected lipogenesis”.

The next test relates to swine adipose tissue. The test is described as follows: In vitro inhibition of lipogenesis (incorporation of radioactive glucose carbon into lipid) in swine adipose tissue slices. It is filed as cell-based. The following applies: Sus scrofa, 100 micrograms per milliliter, 37° C., 2 hours, 5% DMSO, compared to control without test compound, triplicate, read-out: Percent Inhibition of lipogenesis. The text has this: The manner in which they cause this effect is not known with certainty; it is believed that they interfere with the synthesis of fatty acids in the tissue. Their effectiveness for this purpose has been ascertained by immersing samples of swine adipose tissue in a liquid medium containing radioactive glucose and the test chemical for a period time, then isolating the lipid from the treated tissue and determining the incorporation of the ratioactive carbon into the lipid by means of scintillation counting techniques. These tests were conducted in swine adipose tissue because in swine the primary site of lipogenesis--i.e., fatty acid synthesis--appears to be adipose tissue.
Described in more detail, the tests were conducted according to the following general procedure.
150 milligrams of slices of swine adipose tissue were incubated at 37° C. for 2 hours with shaking in 3 milliliters of Krebs-Ringer bicarbonate solution containing one-half the usual calcium ion concentration, 60 micromoles of glucose, 0.5 microCurie of glucose-U^14 C, and 100 milliunits of insulin, and 5% dimethyl sulfoxide (DMSO). The test compounds were added as a solution or suspension in DMSO and were present at a concentration of 100 micrograms per milliliter of the incubation mixture.
The incubation was terminated by addition of 0.25 milliliter of 1 N sulfuric acid. The resulting mixture was extracted with a total of 25 milliliters of chloroform:methanol (2:1 v/v). The extracts were washed according to Folch et al. (J. Biol. Chem., 226, 497-509, (1957)), air dried, and counted in a liquid scintillation counter with 15 milliliters of counting fluid (two parts toluene containing 0.4% w/v New England Nuclear Omnifluor: 1 part Triton X-100). The tests were conducted in triplicate and were accompanied by control tests in which all ingredients,proportions and conditions were the same except that no test compound was included. From the data obtained were calculated the percent inhibition of lipid synthesis by the test compound in each case. The data obtained from these tests were set out in Table I, as the percent inhibition of lipogenesis compared to the results obtained in the control tests wherein only the test compound was omitted.
With `CCCCCCCCC[C@@H]1C[C@H]1C(=O)O` (relative stereo) [Compound 5, 2-Nonylcyclopropanecarboxylic acid (trans)], the inhibition at 100 µg/mL was determined as 79%.
On the same count and under the same terms, the figure for `CCCCC1CC1C(=O)OCC` (stereo not drawn) [Compound 3, Ethyl 2-butylcyclopropanecarboxylate] is 24%; for `CCCCCCCC[C@@H]1C[C@H]1C(=O)O` (relative stereo) [Compound 6, 2-octylcyclopropanecarboxylic acid (trans)] it is 77%; for `CCCCCCCC[C@@H]1C[C@H]1C(N)=O` (relative stereo) [Compound 4, 2-Octylcyclopropanecarboxamide (trans)] it is above 20%.
Take `CCCCCCCCC[C@@H]1C[C@H]1C(N)=O` (relative stereo) [Compound 8, 2-Nonylcyclopropanecarboxycarboxamide (trans)]: the inhibition at 100 µg/mL was 34%.
Regarding `CCOC(=O)C1(C#N)CC1c1ccccc1` (stereo not drawn) [Compound 9, Ethyl 1-cyano-2-phenylcyclopropanecarboxylate], the inhibition at 100 µg/mL turned out to be 57%.
Turning to `CCCCCCCC[C@@H]1C[C@H]1C(=O)OCC` (relative stereo) [Compound 1, Ethyl 2-octylcyclopropanecarboxylate (trans)], the inhibition at 100 µg/mL was above 20%.
`CCOC(=O)C1CC1COC(C)=O` (stereo not drawn) [Compound 12, Ethyl 2-((acetyloxy)methyl)cyclopropanecarboxylate]: the inhibition at 100 µg/mL stood at 31%.
On the same count and under the same terms, the figure for `N#CC1(C(=O)O)CC1c1ccccc1` (stereo not drawn) [Compound 11, 1-Cyano-2-phenylcyclopropanecarboxylic acid] is 49%.
Same read-out and setting: in the case of `CCOC(=O)C1CC1(C#N)c1ccccc1` (stereo not drawn) [Compound 14, Ethyl 2-cyano-2-phenylcyclopropanecarboxylate] it was 53%; in that of `CCCCCCC1CC1(C#N)C(=O)OCC` (stereo not drawn) [Compound 10, Ethyl 1-cyano-2-hexylcyclopropanecarboxylate (trans-)], 44%.
Turning to `O=C(O)[C@@H]1C[C@H]1c1ccccc1` (relative stereo) [Compound 13, 2-phenylcyclopropane-1-carboxylic acid (trans)], the inhibition at 100 µg/mL came out at 32%.
On the same count and under the same terms, the figure for `CCCCCCCCC[C@@H]1C[C@H]1C(=O)OCC` (relative stereo) [Compound 2, Ethyl 2-nonylcyclopropanecarboxylate (trans-)] is 27%; for `CCCCCCCCCCCCCC[C@@H]1C[C@H]1C(=O)O` (relative stereo) [Compound 7, 2-tetradecylcyclopropanecarboxylic acid (trans)] it is 46%.

As usually defined, the inhibition is the percentage by which the read-out fell short of the control.
